For one series, the target named is mushroom tyrosinase. The series is described as follows: Examination for inhibition of tyrosinase activity (L-DOPA substrate, absorbance at 475 nm). Conditions: for IC50: L-DOPA substrate, pH 8.8 phosphate buffer, 1.5 minutes, room temperature, read-out: ID50 (inhibition of tyrosinase activity). The class given is biochemical. As for the experimental part:
(1) EXAMINATION FOR INHIBITION OF TYROSINASE ACTIVITY
10 mg L-DOPA (guaranteed reagent) is dissolved at the time of examination in 20 ml of phosphate buffer described in 3) below and prepared 0.05% L-DOPA solution.
3) 0.1-M phosphate buffer
The buffer was prepared at pH 8.8.
Preparation of sample solution
The sample described in TABLE 1 below are diluted by ethanol to the concentration with 3 standards.
The measurement of the tyrosinase activity was carried out by a modified method of Pomerantz, using L-DOPA (guaranteed reagent) as the substrate and measuring the absorbance at 475 nm at which the absorption of dihydroxyphenylalanine chrome (reaction product) exists.
Namely, 1.0 ml of the L-DOPA solution and 1.8 ml of the phosphate buffer were added in 0.1 ml of the sample solutions. 0.1 ml of tyrosinase solution was added and mixed for reaction for 1.5 minutes at room temperature. The absorbance at 475 nm was measured by using a spectrophotometer (type 220 A Spectrophotometer, HITACHI corporation) and the measured value was expressed by T.
Also, 1.0 ml of distilled water instead of the L-DOPA solution. 1.8 ml of the phosphate buffers and 0.1 ml of the sample solutions were mixed, operated in the same way above, measured the absorbance and obtained the value T' as a reagent blank of the sample.
0.1 ml of ethanol instead of the sample solutions was added to the mixture of 1.0 mo of the L-DOPA and 1.8 ml of phosphate buffers, operated in the same way above and obtained the value C as a control.
1.8 ml of phosphate buffers and 0.1 ml of ethanol were added to 1.0 ml of distilled water instead of L-DOPA solution, operated in the same way above and obtained the value C' as a reagent blank of the control.
Inhibition of tyrosinase activity in each sample concentration were obtained by the following formula. The result was described as semilog graph of which a logarithmic scale indicates concentration of the sample and another scale indicates inhibition ratio of the activity.
Incidentally, the values T, T', C, and C' were measured three times and averages were used for the calculation.
Inhibition of tyrosinase activity (%)=100×[1-(T-T')/(C-C')]

The next series is described as follows: Stability of the samples. Conditions: TABLE 1 and TABLE 2; symbols not defined.
Series [1] relates to human skin. The experiment in a line: Examination for bleaching effect (lotion applied to sunlight-exposed skin, depression effect to the chromatosis). The class given is in vivo. Conditions: for bleaching effect: lotion with 1.0 wt % sample, each morning and evening, 8 weeks, 10 subjects per group; for improvement of bleaching effect by added ingredient (in words): added to preparation including 2-hydroxy alkoxybenzoic acid. As for the experimental part:
(2) E[…] BLEACHING EFFECT
Lotions were prepared by the following formula, using each sample. Namely, the alcohol phase and aqueous phase according to the following formula were prepared respectively, and both phases were mixed and dissolved according to an ordinal method. […]
______________________________________
Polyoxyethylene (25 moles) hydrogenated castor
Sodium hexametaphosphorate
Ion exchanged water balance
10 subjects for each group were exposed to sunlight in summer for 4 hours (2 hours×2 days). The lotion was applied to the facial skin of medialis brachii once each morning and evening […] after the day exposed to the sunlight for 8 weeks. After the application period, depression effect to the chromatosis which was caused by the ultraviolet irradiation was examined and evaluated, the degree of which was based on The following standard.
.circleincircle.: The number of the subjects who judged the result was "extremely effective" or "effective" were equal to or more than eight (Equal to or more than 80%).
.largecircle.: The number of the subjects who judged the result was "extremely effective" or "effective" were five to seven (from 50% less than 70%)
Δ: The number of the subjects who judged the result was "extremely effective" or "effective" were three to four (from 30% less than 40%)
×: The number of the subjects who judged the result was "extremely effective" or "effective" were less than two (less than 20%)
The inhibition effect to the tyrosinase activity which is essential for producing the melanine and bleaching effect for human skin by the 2-hydroxy alkoxybenzoic acid were examined by using samples described in TABLE 1.
The investigation for improvement of bleaching effect by adding other ingredients were carried out as described below.
Namely, the 2-hydroxy-3-methoxybenzoic acid as the 2-hydroxy alkoxy benzoic acid and sodium hyaluronate as the acid mucopolysaccharide were used for the examination of improvement of bleaching effect.
Lotions for the examination were prepared by adding 0.5 weight % of 2-hydroxy-3-methoxybenzoic acid into the alcohol phase and sodium hyaluronate into the aqueous phase of which the concentration as to be shown in TABLE 3.

The subject of series [2] is human skin. As to conditions: stated as known; cited from earlier work.

This is an account of results in patent US5580549A, “External preparation for skin” (priority 1992, dated 1996).

As for `COc1cccc(C(=O)O)c1O` [Example 1, 2-hydroxy-3-methoxybenzoic acid], the IC50 on mushroom tyrosinase was 21 mM. In “Stability of the samples”, the stability entry was “.smallcircle”. For the same compound, in the series with human skin [1], the bleaching effect entry was “.circleincircle. (The number of the subjects who judged the result was "extremely effective" or "effective" were equal to or more than eight (Equal to or more than 80%))”.

Take `COc1ccc(C(=O)O)c(O)c1` [Example 2, 2-hydroxy-4-methoxybenzoic acid]: the IC50 at mushroom tyrosinase was 1 mM. For the same compound, the bleaching effect result in the series on human skin [1] is listed as “.circleincircle. (The number of the subjects who judged the result was "extremely effective" or "effective" were equal to or more than eight (Equal to or more than 80%))”.

Consider `COc1ccc(O)c(C(=O)O)c1` [Example 3, 2-hydroxy-5-methoxybenzoic acid], for which the IC50 at mushroom tyrosinase worked out at 4.5 mM. For the same compound, in the series “Stability of the samples”, the stability result is listed as “.smallcircle”. Besides, the bleaching effect result in the series with human skin [1] is given as “.circleincircle. (The number of the subjects who judged the result was "extremely effective" or "effective" were equal to or more than eight (Equal to or more than 80%))”.

Take `CCOc1ccc(C(=O)O)c(O)c1` [Example 4, 2-hydroxy-4-ethoxybenzoic acid]: the IC50 on mushroom tyrosinase turned out to be 2 mM. The stability result in the series “Stability of the samples” is “.smallcircle”. Moreover, in the series on human skin [1], the bleaching effect entry is reported as “.circleincircle. (The number of the subjects who judged the result was "extremely effective" or "effective" were equal to or more than eight (Equal to or more than 80%))”.

In the case of `Cc1cccc(C(=O)O)c1O` [Example 5, 2-hydroxy-3-methylbenzoic acid], in the series with human skin [1], the bleaching effect result is on record as “.circleincircle. (The number of the subjects who judged the result was "extremely effective" or "effective" were equal to or more than eight (Equal to or more than 80%))”.

`Cc1ccc(C(=O)O)c(O)c1` [Example 6, 2-hydroxy-4-methylbenzoic acid]: the stability result in “Stability of the samples” is recorded as “.smallcircle”. Also, in the series with human skin [1], the bleaching effect result is recorded as “.circleincircle. (The number of the subjects who judged the result was "extremely effective" or "effective" were equal to or more than eight (Equal to or more than 80%))”.

With `Cc1ccc(O)c(C(=O)O)c1` [Example 7, 2-hydroxy-5-methylbenzoic acid], the stability result in “Stability of the samples” is reported as “.smallcircle”. Also, in the series with human skin [1], the bleaching effect entry is given as “.circleincircle. (The number of the subjects who judged the result was "extremely effective" or "effective" were equal to or more than eight (Equal to or more than 80%))”.

Take `CCc1ccc(C(=O)O)c(O)c1` [Example 8, 2-hydroxy-4-ethylbenzoic acid]: in the series “Stability of the samples”, the stability entry is “.smallcircle”. In addition, the bleaching effect result in the series on human skin [1] is “.circleincircle. (The number of the subjects who judged the result was "extremely effective" or "effective" were equal to or more than eight (Equal to or more than 80%))”.

For the compound `Oc1ccc(O)cc1` [a, hydroquinone, reference compound], the IC50 on mushroom tyrosinase is 4.2 mM. In the series with human skin [2], the “side effect (known)” value is given as “have side effect”. Also, the bleaching effect entry with human skin [1] is recorded as “Δ (The number of the subjects who judged the result was "extremely effective" or "effective" were three to four (from 30% less than 40%))”.

Turning to `O=C(O)c1cc(O)ccc1O` [b, gentisic acid, reference compound], at mushroom tyrosinase, the IC50 turned out to be 13.6 mM. In the series “Stability of the samples”, the stability result is given as “Δ”. For the same compound, the “side effect (known)” value with human skin [2] is “have side effect”. Moreover, the bleaching effect entry in the series on human skin [1] is recorded as “Δ (The number of the subjects who judged the result was "extremely effective" or "effective" were three to four (from 30% less than 40%))”.

In the case of `O=C1O[C@H]([C@@H](O)CO)C(O)=C1O` [c, ascorbic acid, reference compound], in the series on mushroom tyrosinase, the “inhibition of tyrosinase activity (in words)” value is reported as “high inhibition effect” and the IC50 was determined as 0.3 mM. In the series with human skin [1] (in vivo), the “bleaching effect (in words)” value is “rather low level”. Further, the bleaching effect entry in the series with human skin [1] is recorded as “.smallcircle”.

On to `O=C(O)CN(CCN(CC(=O)O)CC(=O)O)CC(=O)O` [disodium ethylenediamine tetraacetate], for which the “improvement of bleaching effect by added ingredient (in words)” value (shortened to “improvement of bleaching effect”) in the series on human skin [1] is on record as “excellent improvement effect of bleaching”.

`CCOC(=O)c1ccc(O)cc1` [ethyl p-hydroxybenzoate]: the “improvement of bleaching effect” value with human skin [1] is given as “excellent improvement effect of bleaching”.

For the compound `COC(=O)c1ccc(O)cc1` [methyl p-hydroxybenzoate], the “improvement of bleaching effect” value in the series on human skin [1] is given as “excellent improvement effect of bleaching”.

Consider `COc1ccc(C(=O)[O-])c(O)c1.[K+]` [potassium 2-hydroxy-4-methoxybenzoate], for which, in the series with human skin [1] (bleaching effect examination, lotion), the “subjects who judged the effect was "extremely effective" or "effective"” value is given as 80%.

For `CC(=O)Oc1c(C)c(C)c2c(c1C)CCC(C)(CCC[C@H](C)CCC[C@H](C)CCCC(C)C)O2` (some centres unmarked) [tocopherol acetate], the “improvement of bleaching effect” value with human skin [1] was “excellent improvement effect of bleaching”.

Take sodium hyaluronate: the “improvement of bleaching effect” value in the series on human skin [1] was “extremely improved”.
